According to patent US20090312408A1, “ISOFLAVAN AND ISOFLAVENE COMPOUNDS AND THEIR USE AS ANGIOGENESIS INHIBITORS” (priority 2006, published 2009):

Key:
BBCE cells = assay: bFGF-induced endothelial cell proliferation, analysis by cell counting; assay type: cell-based; details: 120 h, 2.5 ng/ml bFGF, cell counting on day 5 or 6, read-out: half-maximal concentration, inhibition of bFGF-induced proliferation of endothelial cells
Method: BBCE cells were seeded (day 0) in 12-well tissue culture plates at a density of 1250 cells/cm^2 (5000 cells/ml/well) and the following day (day 1), wells received 5 μl of the compound dilutions to be tested and 2.5 ng/ml bFGF. This treatment was repeated after two days (day 3). On day 5 or 6, cells in duplicate wells were trypsinized and counted using a Coulter particle counter. Ten dilutions were tested for each compound.
One of the main angiogenic endothelial cell responses is proliferation, in which the effect of F47 was examined. The effect of F47 on bFGF-induced endothelial cell proliferation was studied using cell counting, the results being shown in FIG. 1. […] F47 inhibited both bFGF- and VEGF-induced proliferation of endothelial cells with half-maximal concentrations of 3 and <1 μM, respectively.

HUVEC = assay: VEGF-induced endothelial cell proliferation, analysis by Ki67 immunostaining; assay type: cell-based; details: Homo sapiens, HUVECs, VEGF 50 ng/ml, 6 hr, read-out: half-maximal concentration, inhibition of VEGF-induced proliferation of endothelial cells
Method: (§1) Human endothelial cells from umbilical vein (HUVEC) were plated on dishes pre-coated with rat collagen type I (Becton Dickinson Biosciences) and cultured in M199 medium supplemented with 20% fetal calf serum, FCS, 50 ng/ml endothelial cell growth supplement (ECGS, Sigma), heparin […] (Sigma) and 1% penicillin-streptomycin. All media and sera for cell culture were purchased from Invitrogen and were endotoxin-free. F47 was tested for endotoxin content using the QCL1000 kit from BioWhittaker, Inc. Stock solutions of F47 were resuspended in DMSO/ethanol, 1/1 by volume, and added directly to the culture medium. Cells not receiving F47 were incubated in the corresponding volume of DMSO/ethanol.
HUVECs (3×10^4) were grown on cover slips and serum starved in a medium containing 5% FCS for 12 hr. Cells were induced with VEGF (50 ng/ml) in the presence or absence of F47 (10 μM) for 6 hr, fixed in 3.7% paraformaldehyde and processed for indirect immunofluorescence using an anti-Ki67 antibody. Cells were counterstained with Hoechst 33342. […] Ki67 antigen is only expressed in active phases of the cell cycle, but not in G0 phase and the percentage of the Ki67-positive cells represents the proliferating population.
One of the main angiogenic endothelial cell responses is proliferation, in which the effect of F47 was examined. […]

HUVECs = assay: Endothelial cell survival/apoptosis, FACS analysis (sub-G1 DNA content); assay type: cell-based, Human; details: serum-starved HUVECs (5% FCS), F47 10 μM, 15 hr
Method: as §1
For analysis by flow cytometry, HUVECs were serum starved for 15 hr in medium containing 5% FCS and treated with VEGF (50 ng/ml) in the presence or absence of F47 (10 μM for the same period of time). At the end of the incubation time, floating and adherent cells were collected in ice-cold PBS, stained with propidium iodine using the CycleTEST PLUS DNA Reagent kit (Becton Dickinson Biosciences) and processed for flow cytometric analysis using a Becton Dickinson Fluorescence Activated Cell Scanner (FACS). The percentage of cells with a sub-G1 DNA content was considered as the cell population that had undergone apoptosis. […]

[1] = test system: Bovine Microvascular Endothelial (BME) cells; assay: In vitro angiogenesis assay (tube formation in 3D collagen gel); assay type: cell-based; details: 50 μM, pictures after 7 days
Method: Collagen was solubilized from rat tail tendons essentially as described by Strom and Michalopoulos, Methods Enzymol 82: 544-555, 1982 and Dharmsathaphorn and Madara, Methods Enzymol. 192: 354-389, 1990. In order to prepare collagen gel, 8 volumes of a cold collagen solution from rat tail tendons (approximately 1.5 mg/ml) were quickly mixed with 1 volume of 10× minimal essential medium (MEM) without bicarbonate and 1 volume of sodium bicarbonate (11.76 mg/ml) on ice. F47 or DMSO was added at final concentration of 50 μM and the mixture was quickly dispensed into 2.00 cm^2-tissue culture wells and it was polymerized at 37° C. for 10 min (Montesano et al., J. Cell Biol. 97: 1648-1652, 1983). Bovine Microvascular Endothelial (BME) cells were seeded onto collagen gel in 500 μl of D-MEM supplemented with 10% Donkey Calf Serum (DCS), 1% glutamine and 1% penicillin-streptomycin, containing F47 (50 μM) or DMSO (control sample). The cells were left at 37° C. for 90-120 min to be attached. Following that, the medium was removed and a second layer of 200 μl of collagen mixture, containing F47 (50 μM) or DMSO, was added on the top. Again, collagen was allowed to polymerize at 37° C. for 10 min. Finally, 500 μl of medium, containing either F47 (50 μM) or DMSO, was added on the top. The ultimate layer of the medium was changed every 2 days renewing thus F47 or DMSO. Pictures were taken after 7 days. […]

A-431 tumors = assay: A-431 murine tumor xenograft model; assay type: in vivo, BALB/c nude mice
Method: To assess the in vivo antiangiogenic/antitumor activity of F47, female immunodeficient mice (5-8 week-old BALB/c nude mice, Charles River, Milan, Italy) were s.c. inoculated in the right flank with 10^7 A-431 cells in a volume of 50 μl (Morbidelli et al., Clinic Cancer Res, 2003; 9(14): 5358-69). After 9 days, when tumors reached a volume of 170 mm^3, animals were randomly assigned to 2 different experimental protocols (9-10 mice per group). Peritumor treatment with F47 (5 μg/day/mice) or vehicle started. The local peritumor treatment was performed at the dose of 5 μg/50 μl/mouse/day. The vehicle containing the same concentrations of solvents (1% ethanol+1% DMSO) was used as control. Daily treatment was performed for 10 consecutive days. Serial caliper measurements of perpendicular diameters were used to calculate tumor volume using the following formula: (shortest diameter×longest diameter×thickness of the tumor in mm). Data are reported as tumor volume in mm^3. Experiments have been performed in accordance with the guidelines of the European Economic Community for animal care and welfare (EEC Law No. 86/609) and National Ethical Committee. Animals were observed daily for signs of cytotoxicity and were sacrified by CO2 asphyxiation.
At day 10 animals were sacrificed and each tumor was immediately frozen in liquid nitrogen. Seven-μm-thick cryostat sections were stained with hematoxylin and eosin and adjacent sections were used for immunohistochemical staining with the anti-ED-B monoclonal antibody after fixation in absolute cold acetone.
FIG. 5 refers to the antitumor activity of F47 evaluated in nude mice inoculated with A-431 cells and treated after the onset of tumor growth (day 9 from inoculation, >150 mm^3 tumor volume). Peri-tumor treatment with F47 (5 μg/mice/day) or vehicle continued for 10 days. Data are reported as tumor volume in mm^3 (means±SEM of […]).

SMILES: COc1cc2c(cc1O)OCC(c1ccc(O)cc1)C2 (centres unmarked) [F47, 7,4′-dihydroxy-6-methoxy-isoflavan]
- IC50 (BBCE cells): 3000 nM
- IC50 (HUVEC): < 1000 nM
- effect on VEGF-induced endothelial cell survival (HUVECs; VEGF 50 ng/ml): did not inhibit
- level of apoptosis of serum-deprived HUVECs (toxic or apoptotic effects of the compound itself) (HUVECs; no VEGF): did not further increase
- in vitro angiogenesis (tube formation) in 3D collagen cultures [1]: strongly inhibited
- survival of mice (A-431 tumors; day 8, peritumor 5 μg/day/mice): 78%
- presence of tumor vasculature (anti-ED-B antibody staining of B-fibronectin) (A-431 tumors; day 10, peritumor 5 μg/day, tumor sections): absent
- tumors smaller than in control mice (tumor volume) (A-431 tumors; peritumor 5 μg/day/mice, P<0.01 vs vehicle group at day 6 and 8, 4 animals/group): approximately 50%
